# Test results reported in publication PMC2752443 (2009).
# Assays:
# [1] = tested on: theophylline-binding RNA aptamer (RNA, aptamer) GGCGAUACCAGCCGAAAGGCCCUUGGCAGCGUC; test: 2D 1H-1H NMR ZZ-exchange; details: no Mg2+; 15 °C; apparent; slope of kf against free theophylline
# [2] = tested on: theophylline-binding RNA aptamer (RNA, aptamer) GGCGAUACCAGCCGAAAGGCCCUUGGCAGCGUC; test: 2D 1H-1H NMR ZZ-exchange, koff/kon; details: no Mg2+; 15 °C; from apparent rate constants
compound,measurement,setting,value
Cn1c(=O)c2[nH]cnc2n(C)c1=O,kon,[1],600 ± 57 M⁻¹ s⁻¹
same,Kd,[2],2.5 mM
